Test results taken from patent US9255110B2 (Hoffmann-La Roche Inc., priority 2010, dated 2016).
Where a name gives a salt, the structure may show the parent alone.

target: IRAK-4 (Homo sapiens (Human), UniProt Q9NWZ3); experiment: In vitro IRAK-4 kinase assay; assay type: biochemical; details: purified recombinant IRAK-4, 50 uM ATP, 33P peptide phosphorylation
Procedure: Purified recombinant IRAK-4 protein was incubated with 250 uM synthetic peptide ([…]) in 30 ul of kinase buffer including (20 mM MOPS pH7.2, 25 mM beta glycerol phosphate, 5 mM EGTA, 1 mM sodium orthovanadate, 1 mM DTT, 50 uM ATP, 20 mM MgCl2, 10 uCi γ-^33P, 0.1% BSA) for the indicated time. For purified recombinant IRAK-1 protein kinase assay, 50 uM ATP was used. A 25 ul aliquot of the reaction mixture was transferred on to p81 phosphocellulose squares (Upstate Biotechnology, Lake Placid, N.Y.). The assay squares were washed three times with 0.75% phosphoric acid and once with acetone. Enzyme activity was measured by determining the bound radioactivity by liquid scintillation counting.

IRAK-4, sequence (Q9NWZ3 whole entry, species assumed): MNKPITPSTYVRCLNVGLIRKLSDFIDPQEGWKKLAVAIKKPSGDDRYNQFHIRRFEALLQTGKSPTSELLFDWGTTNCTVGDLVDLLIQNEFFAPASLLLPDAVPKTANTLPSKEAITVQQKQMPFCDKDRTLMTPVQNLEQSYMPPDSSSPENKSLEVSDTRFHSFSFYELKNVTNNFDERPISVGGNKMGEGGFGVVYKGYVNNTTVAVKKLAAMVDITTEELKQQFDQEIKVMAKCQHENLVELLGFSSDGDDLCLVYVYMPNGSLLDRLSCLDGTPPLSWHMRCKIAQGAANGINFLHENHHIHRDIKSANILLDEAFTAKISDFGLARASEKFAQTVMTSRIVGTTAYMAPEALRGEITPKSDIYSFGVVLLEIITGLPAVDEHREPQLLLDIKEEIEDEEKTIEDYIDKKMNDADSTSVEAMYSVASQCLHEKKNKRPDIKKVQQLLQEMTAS

COc1cc2ncccc2cc1NC(=O)c1csc2cnc(N(C)C(C)C)nc12 [Example 85, 2-(Isopropyl-methyl-amino)-thieno[3,2-d]pyrimidine-7-carboxylic acid (7-methoxy-quinolin-6-yl)-amide] and O=C(Nc1cc2cccnc2cc1OC1CCNC1)c1csc2cncnc12 (stereo not drawn) [Example 88, Thieno[3,2-d]pyrimidine-7-carboxylic acid [7-(pyrrolidin-3-yloxy)-quinolin-6-yl]-amide hydrochloride] are within 1.5-fold of each other in IC50: 432 nM for the first, 455 nM for the second.

Going from COc1ccc(Cl)cc1NC(=O)c1csc2cnc(N(C)CCN)nc12 [Example 86, 2-[(2-Amino-ethyl)-methyl-amino]-thieno[3,2-d]pyrimidine-7-carboxylic acid (5-chloro-2-methoxy-phenyl)-amide] to CC(C)(CCO)Oc1ccc(Cl)cc1NC(=O)c1csc2cncnc12 [Example 117, Thieno[3,2-d]pyrimidine-7-carboxylic acid [5-chloro-2-(3-hydroxy-1,1-dimethyl-propoxy)-phenyl]-amide], the IC50 rises from 436 nM to 1460 nM (3.3-fold). The first is the more potent here.

O=C(Nc1cc(Cl)ccc1OCCCCO)c1cnn2cccnc12 [Example 87, Pyrazolo[1,5-alpha]pyrimidine-3-carboxylic acid [5-chloro-2-(4-hydroxy-butoxy)-phenyl]-amide] and O=C(Nc1cc(Cl)ccc1OCCC(O)CO)c1cnn2cccnc12 (stereo not drawn) [Example 96, Pyrazolo[1,5-alpha]pyrimidine-3-carboxylic acid [5-chloro-2-(3,4-dihydroxy-butoxy)-phenyl]-amide] are within 1.5-fold of each other in IC50: 437 nM for the first, 506 nM for the second.

COc1cc(C(=O)Nc2ccccc2)ccc1NC(=O)c1cnn2cccnc12 [Example 89, Pyrazolo[1,5-alpha]pyrimidine-3-carboxylic acid (2-methoxy-4-phenylcarbamoyl-phenyl)-amide] and COc1cc(C(=O)NCCCO)ccc1NC(=O)c1cnn2cccnc12 [Example 105, Pyrazolo[1,5-alpha]pyrimidine-3-carboxylic acid [4-(3-hydroxy-propylcarbamoyl)-2-methoxy-phenyl]-amide] are within 1.5-fold of each other in IC50: 455 nM for the first, 640 nM for the second.

O=C(Nc1cc(Cl)ccc1N1CCCC(O)C1)c1cnn2cccnc12 (stereo not drawn) [Example 91, Pyrazolo[1,5-alpha]pyrimidine-3-carboxylic acid [5-chloro-2-(3-hydroxy-piperidin-1-yl)-phenyl]-amide] and O=C(Nc1cc(Cl)ccc1N1CCC(O)C1)c1cnn2cccnc12 (stereo not drawn) [Example 95, Pyrazolo[1,5-alpha]pyrimidine-3-carboxylic acid [5-chloro-2-(3-hydroxy-pyrrolidin-1-yl)-phenyl]-amide] are within 1.5-fold of each other in IC50: 474 nM for the first, 493 nM for the second.

O=C(Nc1cc(Cl)ccc1OC1CCNCC1)c1cnn2cccnc12 [Example 92, Pyrazolo[1,5-alpha]pyrimidine-3-carboxylic acid [5-chloro-2-(piperidin-4-yloxy)-phenyl]-amide hydrochloride] and O=C(Nc1cc(Cl)ccc1OC1CCCC(O)C1)c1cnn2cccnc12 (stereo not drawn) [Example 103, Pyrazolo[1,5-alpha]pyrimidine-3-carboxylic acid [5-chloro-2-(3-hydroxy-cyclohexyloxy)-phenyl]-amide] are within 1.5-fold of each other in IC50: 476 nM for the first, 605 nM for the second.

Going from O=C(Nc1cc(Cl)ccc1-c1ccc(O)cc1)c1cnn2cccnc12 [Example 94, Pyrazolo[1,5-alpha]pyrimidine-3-carboxylic acid (4-chloro-4′-hydroxy-biphenyl-2-yl)-amide] to O=C(Nc1cc(Cl)ccc1-c1cccc(O)c1)c1cnn2cccnc12 [Example 125, Pyrazolo[1,5-alpha]pyrimidine-3-carboxylic acid (4-chloro-3′-hydroxy-biphenyl-2-yl)-amide], the IC50 rises from 477 nM to 2050 nM (4.3-fold). The first is the more potent here.

CN1CCN(c2ccc(Cl)cc2NC(=O)c2cnn3cccnc23)CC1 [Example 97, Pyrazolo[1,5-alpha]pyrimidine-3-carboxylic acid [5-chloro-2-(4-methyl-piperazin-1-yl)-phenyl]-amide] and O=C(Nc1cc(Cl)ccc1N1CCOCC1)c1cnn2cccnc12 [Example 99, Pyrazolo[1,5-alpha]pyrimidine-3-carboxylic acid (5-chloro-2-morpholin-4-yl-phenyl)-amide] are within 1.5-fold of each other in IC50: 512 nM for the first, 523 nM for the second.

Going from O=C(Nc1cc(Cl)ccc1OCc1cnco1)c1cnn2cccnc12 [Example 98, Pyrazolo[1,5-alpha]pyrimidine-3-carboxylic acid [5-chloro-2-(oxazol-5-ylmethoxy)-phenyl]-amide] to Cc1ncoc1COc1ccc(Cl)cc1NC(=O)c1cnn2cccnc12 [Example 121, Pyrazolo[1,5-alpha]pyrimidine-3-carboxylic acid [5-chloro-2-(4-methyl-oxazol-5-ylmethoxy)-phenyl]-amide], the IC50 rises from 516 nM to 1550 nM (3-fold). The first is the more potent here.

Going from O=C(Nc1cc(Cl)ccc1-c1ccccc1)c1cnn2cccnc12 [Example 100, Pyrazolo[1,5-alpha]pyrimidine-3-carboxylic acid (4-chloro-biphenyl-2-yl)-amide] to O=C(Nc1ccccc1-c1ccccc1)c1cnn2cccnc12 [Example 116, Pyrazolo[1,5-alpha]pyrimidine-3-carboxylic acid biphenyl-2-ylamide], the IC50 rises from 534 nM to 1220 nM (2.3-fold).

NCC1CCN(c2ccc(Cl)cc2NC(=O)c2cnn3cccnc23)C1 (stereo not drawn) [Example 101, Pyrazolo[1,5-alpha]pyrimidine-3-carboxylic acid [2-(3-aminomethyl-pyrrolidin-1-yl)-5-chloro-phenyl]-amide] and O=C(Nc1cc(Cl)ccc1N1CCC(CO)C1)c1cnn2cccnc12 (stereo not drawn) [Example 106, Pyrazolo[1,5-alpha]pyrimidine-3-carboxylic acid [5-chloro-2-(3-hydroxymethyl-pyrrolidin-1-yl)-phenyl]-amide] are within 1.5-fold of each other in IC50: 564 nM for the first, 650 nM for the second.

COc1cc2cc[nH]c2cc1NC(=O)c1csc2cncnc12 [Example 102, Thieno[3,2-d]pyrimidine-7-carboxylic acid (5-methoxy-1H-indol-6-yl)-amide] and COc1cc2cc[nH]c2cc1NC(=O)c1cnn2cccnc12 [Example 110, Pyrazolo[1,5-alpha]pyrimidine-3-carboxylic acid (5-methoxy-1H-indol-6-yl)-amide] are within 1.5-fold of each other in IC50: 596 nM for the first, 787 nM for the second.

First: COc1cc2ccccc2cc1NC(=O)c1cnn2cccnc12 [Example 104, Pyrazolo[1,5-alpha]pyrimidine-3-carboxylic acid (3-methoxy-naphthalen-2-yl)-amide]
Second: COc1ccc(Cl)cc1NC(=O)c1cnn2cccnc12 [Example 123, Pyrazolo[1,5-alpha]pyrimidine-3-carboxylic acid (5-chloro-2-methoxy-phenyl)-amide]
The IC50 of the first is 2.7-fold lower: 613 nM for the first, 1630 nM for the second.

O=C(Nc1cc(Cl)ccc1OC(F)F)c1cnn2cccnc12 [Example 107, Pyrazolo[1,5-alpha]pyrimidine-3-carboxylic acid (5-chloro-2-difluoromethoxy-phenyl)-amide] and CSc1ccc(Cl)cc1NC(=O)c1cnn2cccnc12 [Example 111, Pyrazolo[1,5-alpha]pyrimidine-3-carboxylic acid (5-chloro-2-methylsulfanyl-phenyl)-amide] are within 1.5-fold of each other in IC50: 717 nM for the first, 798 nM for the second.

Compared with CN(C)c1ccc(Cl)cc1NC(=O)c1cnn2cccnc12 [Example 108, Pyrazolo[1,5-alpha]pyrimidine-3-carboxylic acid (5-chloro-2-dimethylamino-phenyl)-amide], COCCOc1ccc(Cl)cc1NC(=O)c1cnn2cccnc12 [Example 124, Pyrazolo[1,5-alpha]pyrimidine-3-carboxylic acid [5-chloro-2-(2-methoxy-ethoxy)-phenyl]-amide] is 2.3-fold higher in IC50: 739 nM for the first, 1710 nM for the second. The first is the more potent here.

Compared with NC1CCN(c2ccc(Cl)cc2NC(=O)c2cnn3cccnc23)C1 (stereo not drawn) [Example 109, Pyrazolo[1,5-alpha]pyrimidine-3-carboxylic acid [2-(3-amino-pyrrolidin-1-yl)-5-chloro-phenyl]-amide], O=C(Nc1cc(Cl)ccc1N1CCCCCC1)c1cnn2cccnc12 [Example 119, Pyrazolo[1,5-alpha]pyrimidine-3-carboxylic acid (2-azepan 1-yl-5-chloro-phenyl)-amide] is 2-fold higher in IC50: 766 nM for the first, 1500 nM for the second. The first is the more potent here.

O=C(Nc1cc(Cl)ccc1C1CCCCC1)c1cnn2cccnc12 [Example 112, Pyrazolo[1,5-alpha]pyrimidine-3-carboxylic acid (5-chloro-2-cyclohexyl-phenyl)-amide] and O=C(Nc1cccc(NCCO)c1N1CCCCC1)c1cnn2cccnc12 [Example 114, Pyrazolo[1,{tildeover (5)}alpha] pyrimidine-3-carboxylic acid [3-(2-hydroxy-ethylamino)-2-piperidin-1-yl-phenyl]-amide] are within 1.5-fold of each other in IC50: 799 nM for the first, 1030 nM for the second.

Compared with COc1cc(C(=O)NCCCO)ccc1NC(=O)c1csc2cncnc12 [Example 113, Thieno[3,2-d]pyrimidine-7-carboxylic acid [4-(3-hydroxy-propylcarbamoyl)-2-methoxy-phenyl]-amide], COc1cc(C(=O)NCCO)ccc1NC(=O)c1csc2cncnc12 [Example 122, Thieno[3,2-d]pyrimidine-7-carboxylic acid [4-(2-hydroxy-ethylcarbamoyl)-2-methoxy-phenyl]-amide] is 1.9-fold higher in IC50: 833 nM for the first, 1620 nM for the second.

Cc1ncoc1COc1ccc(Cl)cc1NC(=O)c1csc2cncnc12 [Example 115, Thieno[3,2-d]pyrimidine-7-carboxylic acid [5-chloro-2-(4-methyl-oxazol-5-ylmethoxy)-phenyl]-amide] and O=C(Nc1cc(Cl)ccc1OC1CCC(O)C1)c1csc2cncnc12 (stereo not drawn) [Example 120, Thieno[3,2-d]pyrimidine-7-carboxylic acid [5-chloro-2-(3-hydroxy-cyclopentyloxy)-phenyl]-amide] are within 1.5-fold of each other in IC50: 1050 nM for the first, 1520 nM for the second.

NC1CCC(Oc2ccc(Cl)cc2NC(=O)c2csc3cncnc23)CC1 (stereo not drawn) [Example 118, Thieno[3,2-d]pyrimidine-7-carboxylic acid [2-(4-amino-cyclohexyloxy)-5-chloro-phenyl]-amide] gave an IC50 of 1470 nM.
